# Assay: Release Test: nitric oxide (NO) release profile by spectrophotometry (Griess test)
# Type: physicochemical
# Settings: 4 mg product in 2.5 ml Griess reagent
# Description: The nitric oxide (NO) release profile of the compounds of the invention was evaluated by spectrophotometry using the […]. The trend of NO release by the HA-Cys conjugate in S-nitroso form, prepared as described in example 13, is shown here by way of example. Briefly: 4 mg of the product is dissolved in 2.5 ml of Griess reagent in a UV-visible spectrophotometric cuvette. The solution is rapidly homogenised, placed in a double-beam spectrophotometer (Perkin Elmer Lambda 2), and the absorbance trend is measured at 540 nm over time against a blank consisting of Griess solution. The absorbance, i.e. the nitric oxide concentration, increases in the solution with an asymptotic trend, the plateau of which has not yet been reached 25 hrs after release. Assuming first-order kinetics, a decay constant amounting to 70 min^−1 is obtained.
substance,measurement,setting,value
HA-Cys-S-nitric Oxide p50 Derivative (750 kDa) [Example 13],"decay constant of NO release, assuming first-order kinetics",absorbance at 540 nm over time against Griess solution blank,70 min⁻¹
same,time after release at which the plateau of NO concentration (absorbance) has not yet been reached,"absorbance at 540 nm, asymptotic trend",> 25 h

# Source: US8969320B2, “Hyaluronic acid derivatives containing groups able to release NO” (Fidia Farmaceutici S.P.A., priority 2007, dated 2015)
